Experimental data from article PMC8459745 (Bioorganic & medicinal chemistry letters, 2021).

Target: focal adhesion kinase (FAK) (Homo sapiens, UniProt Q05397)
Test: FAK kinase inhibition assay
Type: biochemical

focal adhesion kinase (FAK), sequence (Q05397 2-1052): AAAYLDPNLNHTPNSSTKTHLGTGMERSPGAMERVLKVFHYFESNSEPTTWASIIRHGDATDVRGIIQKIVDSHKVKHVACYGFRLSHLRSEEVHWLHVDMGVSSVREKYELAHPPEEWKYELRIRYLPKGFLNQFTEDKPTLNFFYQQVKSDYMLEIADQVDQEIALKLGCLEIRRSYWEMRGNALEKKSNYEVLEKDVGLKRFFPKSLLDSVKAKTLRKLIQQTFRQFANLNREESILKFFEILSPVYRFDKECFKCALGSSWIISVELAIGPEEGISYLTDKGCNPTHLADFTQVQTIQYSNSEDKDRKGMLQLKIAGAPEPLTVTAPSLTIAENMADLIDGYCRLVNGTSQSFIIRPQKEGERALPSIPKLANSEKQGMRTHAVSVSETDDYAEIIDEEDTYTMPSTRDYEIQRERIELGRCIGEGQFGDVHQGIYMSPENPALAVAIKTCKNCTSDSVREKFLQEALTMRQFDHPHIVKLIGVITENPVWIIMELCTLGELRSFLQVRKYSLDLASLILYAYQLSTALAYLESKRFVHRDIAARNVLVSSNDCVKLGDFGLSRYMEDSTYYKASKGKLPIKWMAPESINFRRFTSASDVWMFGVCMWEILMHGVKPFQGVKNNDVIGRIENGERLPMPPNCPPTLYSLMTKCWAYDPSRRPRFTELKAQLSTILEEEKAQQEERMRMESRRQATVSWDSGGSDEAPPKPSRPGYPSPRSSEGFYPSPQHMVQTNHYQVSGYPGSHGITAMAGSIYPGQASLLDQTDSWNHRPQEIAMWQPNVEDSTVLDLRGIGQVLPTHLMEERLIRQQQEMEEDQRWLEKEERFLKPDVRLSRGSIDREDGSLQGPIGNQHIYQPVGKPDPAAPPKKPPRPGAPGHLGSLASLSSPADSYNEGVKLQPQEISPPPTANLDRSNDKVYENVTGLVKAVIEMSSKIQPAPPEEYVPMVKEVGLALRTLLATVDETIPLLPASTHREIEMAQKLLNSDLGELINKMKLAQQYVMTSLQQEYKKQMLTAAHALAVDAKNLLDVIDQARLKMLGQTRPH

- IC50: 0.0221 µM
Structure (SMILES): CONC(=O)c1ccccc1Nc1cc(Nc2cc(C)nn2C(C)C)ncc1Cl [GSK2256098]
